Where no end group is shown, it is not given here.
Experiments:
[1] = system: HLA-A*0201 human T cells; test: IFN-γ ELISPOT of human T-cell cultures activated with BFA5 peptides; format: cell-based; conditions: listing of the peptide is the result
[2] = Rabbit immunization with BFA5 peptides, IgG titer; format: in vivo; conditions: for IgG titer × 10^5 (after second Immunization): KLH-coupled peptide with Freund's Incomplete Adjuvant, two weeks later; for IgG titer × 10^5 (after first Immunization): peptide emulsion with Freund's Complete Adjuvant
Procedure: Polyclonal antisera were generated against the following series of 22- to 23-mer peptides of BFA5:
Prebleed samples from rabbits were processed and stored at −20° C. Rabbits were immunized as follows: 1) the peptides were administered as an emulsion with Freund's Complete Adjuvant (FCA); and, 2) two weeks later, the peptides were coupled with Keyhole-Limpet Hemocyanin (KLH)-coupled and administered as an emulsion with Freund's Incomplete Adjuvant FIA.

[3] = system: peptide-loaded T2 cells; test: 51Cr-release CTL assay using peptide-loaded T2 cells; format: cell-based, human; conditions: listing of the peptide is the result

Substance: ALRIQDIEL
- BFA5 peptides eliciting high IFN-γ release (>200 spots/100,000 cells) ([1]; Donor AP10): ALRIQDIEL

Substance: KSQEPAFHI
- BFA5 peptides eliciting high IFN-γ release (>200 spots/100,000 cells) ([1]; Donor AP31): KSQEPAFHI

Substance: TVSQKDVCL
- BFA5 peptides eliciting high IFN-γ release (>200 spots/100,000 cells) ([1]; Donor AP10): TVSQKDVCL

Substance: VFAADICGV
- BFA5 peptides eliciting high IFN-γ release (>200 spots/100,000 cells) ([1]; Donor AP31): VFAADICGV

Substance: SVPNKALEL
- BFA5 peptides eliciting high IFN-γ release (>200 spots/100,000 cells) ([1]; Donor AP10): SVPNKALEL

Substance: KLH-RLTLNQEEEKRRNADILNEKIRE ({KLH}-RLTLNQEEEKRRNADILNEKIRE) [CLP 2980]
- IgG titer × 10^5 (after second Immunization) ([2]; Rb1): 1024 × 10^5
- IgG titer × 10^5 (after first Immunization) ([2]; Rb1): 25 × 10^5
- IgG titer × 10^5 (after second Immunization) ([2]; Rb2): 128 × 10^5
- IgG titer × 10^5 (after first Immunization) ([2]; Rb2): 12 × 10^5

Substance: VLKKKLSEA
- BFA5 peptides eliciting high IFN-γ release (>200 spots/100,000 cells) ([1]; Donor AP31): VLKKKLSEA

Substance: NLNYAGDAL
- BFA5 peptides eliciting high IFN-γ release (>200 spots/100,000 cells) ([1]; Donor AP10): NLNYAGDAL
- BFA5 peptides eliciting high IFN-γ release (>200 spots/100,000 cells) ([1]; Donor AP31): NLNYAGDAL

Substance: KVMEINREV
- BFA5 peptides eliciting high IFN-γ release (>200 spots/100,000 cells) ([1]; Donor AP10): KVMEINREV

Substance: KCTALMLAV
- BFA5 peptides eliciting high IFN-γ release (>200 spots/100,000 cells) ([1]; Donor AP10): KCTALMLAV

Substance: KVSIPTKAL
- BFA5 peptides eliciting high IFN-γ release (>200 spots/100,000 cells) ([1]; Donor AP10): KVSIPTKAL
- BFA5 peptides inducing CTL lysis of pulsed cells ([3]; Donor AP31): KVSIPTKAL

Substance: KLH-TSEKFTWPAKGRPRKIAWEKKED ({KLH}-TSEKFTWPAKGRPRKIAWEKKED) [CLP 2978]
- IgG titer × 10^5 (after second Immunization) ([2]; Rb1): 64 × 10^5
- IgG titer × 10^5 (after first Immunization) ([2]; Rb1): 25/25 × 10^5
- IgG titer × 10^5 (after second Immunization) ([2]; Rb2): 256 × 10^5
- IgG titer × 10^5 (after first Immunization) ([2]; Rb2): 25/25 × 10^5

Substance: GVTAEHYAV
- BFA5 peptides eliciting high IFN-γ release (>200 spots/100,000 cells) ([1]; Donor AP31): GVTAEHYAV

Substance: SVPNKAFEL
- BFA5 peptides eliciting high IFN-γ release (>200 spots/100,000 cells) ([1]; Donor AP10): SVPNKAFEL

Substance: SLKINLNYA
- BFA5 peptides eliciting high IFN-γ release (>200 spots/100,000 cells) ([1]; Donor AP10): SLKINLNYA
- BFA5 peptides eliciting high IFN-γ release (>200 spots/100,000 cells) ([1]; Donor AP31): SLKINLNYA
- BFA5 peptides inducing CTL lysis of pulsed cells ([3]; Donor AP31): SLKINLNYA

Substance: SLTPLLLSI
- BFA5 peptides eliciting high IFN-γ release (>200 spots/100,000 cells) ([1]; Donor AP10): SLTPLLLSI
- BFA5 peptides eliciting high IFN-γ release (>200 spots/100,000 cells) ([1]; Donor AP31): SLTPLLLSI
- BFA5 peptides inducing CTL lysis of pulsed cells ([3]; Donor AP31): SLTPLLLSI

Substance: KLH-NYNNHLKNRIYQYEKEKAETENS ({KLH}-NYNNHLKNRIYQYEKEKAETENS) [CLP 2982]
- IgG titer × 10^5 (after second Immunization) ([2]; Rb1): 64 × 10^5
- IgG titer × 10^5 (after first Immunization) ([2]; Rb1): 2/2 × 10^5
- IgG titer × 10^5 (after second Immunization) ([2]; Rb2): 32 × 10^5
- IgG titer × 10^5 (after first Immunization) ([2]; Rb2): 2/2 × 10^5

Substance: AVYSEILSV
- BFA5 peptides eliciting high IFN-γ release (>200 spots/100,000 cells) ([1]; Donor AP10): AVYSEILSV

Substance: MLKKEIAML
- BFA5 peptides eliciting high IFN-γ release (>200 spots/100,000 cells) ([1]; Donor AP31): MLKKEIAML

Substance: YLLHENCML
- BFA5 peptides eliciting high IFN-γ release (>200 spots/100,000 cells) ([1]; Donor AP10): YLLHENCML
- BFA5 peptides eliciting high IFN-γ release (>200 spots/100,000 cells) ([1]; Donor AP31): YLLHENCML
- BFA5 peptides inducing CTL lysis of pulsed cells ([3]; Donor AP10): YLLHENCML

Substance: NLVDVYGNM
- BFA5 peptides eliciting high IFN-γ release (>200 spots/100,000 cells) ([1]; Donor AP10): NLVDVYGNM
- BFA5 peptides inducing CTL lysis of pulsed cells ([3]; Donor AP10): NLVDVYGNM

Substance: KLH-AENTMLTSKLKEKQDKEILEAEI ({KLH}-AENTMLTSKLKEKQDKEILEAEI) [CLP 2981]
- IgG titer × 10^5 (after second Immunization) ([2]; Rb1): 256 × 10^5
- IgG titer × 10^5 (after first Immunization) ([2]; Rb1): 8 × 10^5
- IgG titer × 10^5 (after second Immunization) ([2]; Rb2): 64 × 10^5
- IgG titer × 10^5 (after first Immunization) ([2]; Rb2): 4 × 10^5

Substance: QLQSKNMWL
- BFA5 peptides eliciting high IFN-γ release (>200 spots/100,000 cells) ([1]; Donor AP10): QLQSKNMWL
- BFA5 peptides eliciting high IFN-γ release (>200 spots/100,000 cells) ([1]; Donor AP31): QLQSKNMWL
- BFA5 peptides inducing CTL lysis of pulsed cells ([3]; Donor AP31): QLQSKNMWL

Substance: SLSKILDTV
- BFA5 peptides eliciting high IFN-γ release (>200 spots/100,000 cells) ([1]; Donor AP10): SLSKILDTV
- BFA5 peptides eliciting high IFN-γ release (>200 spots/100,000 cells) ([1]; Donor AP31): SLSKILDTV
- BFA5 peptides inducing CTL lysis of pulsed cells ([3]; Donor AP31): SLSKILDTV

Substance: ILKEKNAEL
- BFA5 peptides eliciting high IFN-γ release (>200 spots/100,000 cells) ([1]; Donor AP10): ILKEKNAEL
- BFA5 peptides eliciting high IFN-γ release (>200 spots/100,000 cells) ([1]; Donor AP31): ILKEKNAEL

Substance: KLH-DEILPSESKQKDYEENSWDTESL ({KLH}-DEILPSESKQKDYEENSWDTESL) [CLP 2979]
- IgG titer × 10^5 (after second Immunization) ([2]; Rb1): 256 × 10^5
- IgG titer × 10^5 (after first Immunization) ([2]; Rb1): 12 × 10^5
- IgG titer × 10^5 (after second Immunization) ([2]; Rb2): 512 × 10^5
- IgG titer × 10^5 (after first Immunization) ([2]; Rb2): 25 × 10^5

Substance: ATCGMKVSI
- BFA5 peptides eliciting high IFN-γ release (>200 spots/100,000 cells) ([1]; Donor AP10): ATCGMKVSI
- BFA5 peptides inducing CTL lysis of pulsed cells ([3]; Donor AP10): ATCGMKVSI

Substance: QIMEYIRKL
- BFA5 peptides eliciting high IFN-γ release (>200 spots/100,000 cells) ([1]; Donor AP10): QIMEYIRKL
- BFA5 peptides eliciting high IFN-γ release (>200 spots/100,000 cells) ([1]; Donor AP31): QIMEYIRKL
- BFA5 peptides inducing CTL lysis of pulsed cells ([3]; Donor AP31): QIMEYIRKL

Substance: SIPTKALEL
- BFA5 peptides eliciting high IFN-γ release (>200 spots/100,000 cells) ([1]; Donor AP10): SIPTKALEL
- BFA5 peptides inducing CTL lysis of pulsed cells ([3]; Donor AP31): SIPTKALEL

Substance: AELQMTLKL
- BFA5 peptides eliciting high IFN-γ release (>200 spots/100,000 cells) ([1]; Donor AP10): AELQMTLKL
- BFA5 peptides inducing CTL lysis of pulsed cells ([3]; Donor AP10): AELQMTLKL
- BFA5 peptides inducing CTL lysis of pulsed cells ([3]; Donor AP31): AELQMTLKL

Substance: MLKLEIATL
- BFA5 peptides eliciting high IFN-γ release (>200 spots/100,000 cells) ([1]; Donor AP10): MLKLEIATL
- BFA5 peptides eliciting high IFN-γ release (>200 spots/100,000 cells) ([1]; Donor AP31): MLKLEIATL
- BFA5 peptides inducing CTL lysis of pulsed cells ([3]; Donor AP31): MLKLEIATL

Substance: KLH-MTKRKKTINLNIQDAQKRTALHW ({KLH}-MTKRKKTINLNIQDAQKRTALHW) [CLP 2977]
- IgG titer × 10^5 (after second Immunization) ([2]; Rb1): 256 × 10^5
- IgG titer × 10^5 (after first Immunization) ([2]; Rb1): 25 × 10^5
- IgG titer × 10^5 (after second Immunization) ([2]; Rb2): 64 × 10^5
- IgG titer × 10^5 (after first Immunization) ([2]; Rb2): 6 × 10^5
